This passage reports LC50 and Activity results from ChEMBL document CHEMBL1159268, “The structures of new lanostane triterpenes from the fruiting bodies of Hebeloma senescens” (J Nat Prod, 1995).

Values after ≈ are worked out from the molar mass of the structure shown. Active and inactive are the calls of the source. No cut-off for these calls is given here.

Data set [1] is described as follows: Toxicity against Artemia salina. As to conditions: in vivo, read-out: LD50 (the source's name). In kind it is organism-based.
The test system of the next data set is Candida albicans. As to the kind of experiment: […] activity against Candida albicans. The data set is classed as functional, organism-based.
A further data set concerns Escherichia coli. Briefly: Antibacterial activity against Escherichia coli. In kind it is functional, organism-based.

Regarding `CC(=O)O[C@H]1[C@H](OC(=O)C[C@@](C)(O)CC(=O)O)C[C@]2(C)C3=C(CC[C@H]2C1(C)C)[C@]1(C)CC[C@H]([C@H]2CC[C@H](C(C)(C)O)O[C@@H]2O)[C@@]1(C)[C@@H](O)C3` [HEBELOMIC ACID A], the LC50 in data set [1] was 96.5 mg/L (≈ 139 µM). Further, the result with Candida albicans and in the data set with Escherichia coli was inactive.
Turning to `CC(=O)O[C@H]1CC2=C(CC[C@H]3C(C)(C)[C@@H](OC(C)=O)[C@H](OC(=O)C[C@@](C)(O)CC(=O)O)C[C@]23C)[C@]2(C)CC[C@H]([C@H]3CC[C@H](C(C)(C)O)O[C@@H]3O)[C@@]12C` [HEBELOMIC ACID B], in data set [1], the LC50 turned out to be 386 mg/L (≈ 525 µM). Further, the outcome in the data set on Candida albicans and in the data set with Escherichia coli was inactive.
As to `CC(=O)O[C@H]1O[C@@H](C(C)(C)O)CC[C@@H]1[C@H]1CC[C@@]2(C)C3=C(CC[C@]12C)[C@@]1(C)C[C@@H](OC(=O)C[C@@](C)(O)CC(=O)O)[C@H](OC(C)=O)C(C)(C)[C@@H]1CC3` [HEBELOMIC ACID F], in data set [1], the LC50 was determined as 19.7 mg/L (≈ 27.4 µM). Besides, the result in the data set on Candida albicans and in the data set with Escherichia coli was inactive.
